Among the targets are Cytochrome P450 3A4 (Homo sapiens, UniProt P08684); Cytochrome P450 2C9 (Homo sapiens, UniProt P11712); Cytochrome P450 2D6 (Homo sapiens, UniProt P10635).
Another data set has as its target T1, Cytochrome P450 1A2 (Homo sapiens, UniProt P05177).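 Further: PubChem cytochrome P450 panel assay, CYP1A2 panel member.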
T1 sequence (P05177 whole entry): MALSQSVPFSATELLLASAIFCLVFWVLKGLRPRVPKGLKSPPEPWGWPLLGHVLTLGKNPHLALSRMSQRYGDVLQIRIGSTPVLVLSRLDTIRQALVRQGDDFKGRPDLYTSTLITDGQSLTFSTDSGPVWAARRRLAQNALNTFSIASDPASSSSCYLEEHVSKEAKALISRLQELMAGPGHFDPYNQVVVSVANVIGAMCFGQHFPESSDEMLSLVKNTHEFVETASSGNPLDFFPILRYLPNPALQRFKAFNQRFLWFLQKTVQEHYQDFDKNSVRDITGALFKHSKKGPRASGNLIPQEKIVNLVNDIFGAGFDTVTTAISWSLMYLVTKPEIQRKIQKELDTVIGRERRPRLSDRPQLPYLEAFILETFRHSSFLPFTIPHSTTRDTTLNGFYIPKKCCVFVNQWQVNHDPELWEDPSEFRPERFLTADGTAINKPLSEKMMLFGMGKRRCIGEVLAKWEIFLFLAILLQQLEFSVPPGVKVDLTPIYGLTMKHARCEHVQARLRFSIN

In data set [1] the target is T2, Heat shock factor protein 1 (Mus musculus, UniProt P38532).
T2 sequence (P38532 whole entry): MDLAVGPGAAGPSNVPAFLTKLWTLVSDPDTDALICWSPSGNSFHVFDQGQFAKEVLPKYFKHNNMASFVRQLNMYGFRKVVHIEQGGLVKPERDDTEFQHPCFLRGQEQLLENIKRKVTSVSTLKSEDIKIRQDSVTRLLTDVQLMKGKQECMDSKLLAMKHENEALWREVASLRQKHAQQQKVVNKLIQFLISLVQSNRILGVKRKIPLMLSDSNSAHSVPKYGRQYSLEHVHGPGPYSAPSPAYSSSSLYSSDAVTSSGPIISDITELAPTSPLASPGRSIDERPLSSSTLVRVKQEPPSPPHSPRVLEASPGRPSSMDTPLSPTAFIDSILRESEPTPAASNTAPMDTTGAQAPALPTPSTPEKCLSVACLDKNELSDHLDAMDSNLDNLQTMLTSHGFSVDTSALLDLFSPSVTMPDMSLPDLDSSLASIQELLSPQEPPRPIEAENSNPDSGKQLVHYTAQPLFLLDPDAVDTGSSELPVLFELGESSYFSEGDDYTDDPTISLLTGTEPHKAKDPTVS
Put plainly: decrease of HSF1-responsive luciferase luminescence – cell-based, NIH3T3, dose retest, confirmation (AID 2382).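 Further: NIH3T3 fibroblasts with HSF1-driven luciferase reporter stressed by proteasome inhibitor MG132; luminescence from HSF1-driven luciferase expression after 8 hours of MG132 stress.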 The class given is functional.

For another data set, the target named is Cytochrome P450 2C19 (Homo sapiens, UniProt P33261). Put plainly: Cytochrome panel assay with activity outcomes. Panel member name: p450-cyp2c19 Compounds with AC50 equal or less than 10 uM are considered active. The class given is functional.
Cytochrome P450 2C19, sequence (P33261 whole entry): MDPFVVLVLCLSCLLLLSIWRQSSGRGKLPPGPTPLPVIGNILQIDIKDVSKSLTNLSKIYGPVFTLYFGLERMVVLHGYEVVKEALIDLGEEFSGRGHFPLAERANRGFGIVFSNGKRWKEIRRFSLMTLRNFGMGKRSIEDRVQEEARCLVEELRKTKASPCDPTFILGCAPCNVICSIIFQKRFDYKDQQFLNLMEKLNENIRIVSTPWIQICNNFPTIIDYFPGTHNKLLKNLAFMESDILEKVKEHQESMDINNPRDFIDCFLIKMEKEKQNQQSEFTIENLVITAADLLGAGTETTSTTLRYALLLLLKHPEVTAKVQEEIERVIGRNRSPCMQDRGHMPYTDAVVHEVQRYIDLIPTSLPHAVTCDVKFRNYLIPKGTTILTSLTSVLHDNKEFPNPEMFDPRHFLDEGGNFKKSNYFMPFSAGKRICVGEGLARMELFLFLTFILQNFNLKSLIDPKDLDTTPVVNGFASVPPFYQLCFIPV
The target in data set [2] is T3, RNA-binding protein pos-1 (Caenorhabditis elegans, UniProt G5EF15).
T3 sequence (G5EF15 whole entry): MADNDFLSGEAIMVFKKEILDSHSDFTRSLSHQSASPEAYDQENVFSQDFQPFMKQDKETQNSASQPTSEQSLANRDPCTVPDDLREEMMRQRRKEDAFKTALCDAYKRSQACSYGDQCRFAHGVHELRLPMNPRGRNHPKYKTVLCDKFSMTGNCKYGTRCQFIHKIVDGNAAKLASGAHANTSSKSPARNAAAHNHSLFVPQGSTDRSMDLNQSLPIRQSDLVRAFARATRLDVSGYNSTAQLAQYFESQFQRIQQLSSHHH
Put plainly: disruptors of C. elegans POS-1 RNA interaction – biochemical, fluorescence polarization, dose response (AID 1964).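 Further: purified POS-1 fused to maltose binding protein made in E. coli; potency of compounds blocking POS-1 binding to fluorescent RNA.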

Data set [3] has as its target T4, Zinc finger protein mex-5 (Caenorhabditis elegans, UniProt Q9XUB2).
T4 sequence (Q9XUB2 whole entry): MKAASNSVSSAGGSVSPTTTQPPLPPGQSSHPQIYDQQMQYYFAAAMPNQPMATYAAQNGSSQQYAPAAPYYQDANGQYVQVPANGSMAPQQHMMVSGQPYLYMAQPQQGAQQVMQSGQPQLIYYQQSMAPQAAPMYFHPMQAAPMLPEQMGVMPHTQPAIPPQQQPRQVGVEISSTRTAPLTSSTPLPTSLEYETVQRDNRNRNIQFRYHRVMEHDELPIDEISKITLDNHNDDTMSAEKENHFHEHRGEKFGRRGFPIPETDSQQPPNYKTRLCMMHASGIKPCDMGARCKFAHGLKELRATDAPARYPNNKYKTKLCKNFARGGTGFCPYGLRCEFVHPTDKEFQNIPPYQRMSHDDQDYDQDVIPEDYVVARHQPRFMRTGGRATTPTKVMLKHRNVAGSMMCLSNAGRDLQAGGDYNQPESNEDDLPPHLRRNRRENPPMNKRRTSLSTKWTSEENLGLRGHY
Put plainly: potency of MEX-5 RNA-binding blockers – biochemical, C. elegans, fluorescence polarization, dose response (AID 1960). (Polarisation of emitted light reports the rotation of a fluorescent probe.)

Active and inactive are the calls of the source.

Cytochrome P450 2C9, sequence (P11712 whole entry): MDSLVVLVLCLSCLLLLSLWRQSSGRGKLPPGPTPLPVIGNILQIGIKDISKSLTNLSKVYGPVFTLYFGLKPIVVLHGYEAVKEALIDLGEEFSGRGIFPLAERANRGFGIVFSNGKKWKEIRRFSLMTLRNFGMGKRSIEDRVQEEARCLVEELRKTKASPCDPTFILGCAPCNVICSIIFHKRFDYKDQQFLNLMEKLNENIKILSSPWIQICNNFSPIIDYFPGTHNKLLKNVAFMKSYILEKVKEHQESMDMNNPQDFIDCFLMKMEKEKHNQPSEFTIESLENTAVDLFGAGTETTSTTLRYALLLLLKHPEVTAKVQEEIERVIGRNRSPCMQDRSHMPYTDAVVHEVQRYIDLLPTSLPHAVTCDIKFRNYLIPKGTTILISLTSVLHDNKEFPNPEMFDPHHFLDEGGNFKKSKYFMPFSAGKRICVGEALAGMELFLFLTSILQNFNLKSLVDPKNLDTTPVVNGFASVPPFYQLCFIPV
Cytochrome P450 2D6, sequence (P10635 whole entry): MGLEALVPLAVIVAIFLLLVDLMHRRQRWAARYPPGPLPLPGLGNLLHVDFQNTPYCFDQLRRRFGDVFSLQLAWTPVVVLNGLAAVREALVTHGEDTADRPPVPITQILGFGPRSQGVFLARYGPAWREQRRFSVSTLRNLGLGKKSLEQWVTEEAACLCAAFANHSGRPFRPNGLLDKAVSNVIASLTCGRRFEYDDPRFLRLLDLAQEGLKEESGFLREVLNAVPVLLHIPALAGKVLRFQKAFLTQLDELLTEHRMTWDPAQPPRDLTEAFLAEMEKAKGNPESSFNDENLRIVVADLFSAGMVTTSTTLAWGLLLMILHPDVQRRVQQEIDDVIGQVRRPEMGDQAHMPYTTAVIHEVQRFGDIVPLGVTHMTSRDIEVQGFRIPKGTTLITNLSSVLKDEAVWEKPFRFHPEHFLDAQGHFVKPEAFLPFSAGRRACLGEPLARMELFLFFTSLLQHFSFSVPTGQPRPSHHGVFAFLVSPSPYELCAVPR
Cytochrome P450 3A4, sequence (P08684 whole entry): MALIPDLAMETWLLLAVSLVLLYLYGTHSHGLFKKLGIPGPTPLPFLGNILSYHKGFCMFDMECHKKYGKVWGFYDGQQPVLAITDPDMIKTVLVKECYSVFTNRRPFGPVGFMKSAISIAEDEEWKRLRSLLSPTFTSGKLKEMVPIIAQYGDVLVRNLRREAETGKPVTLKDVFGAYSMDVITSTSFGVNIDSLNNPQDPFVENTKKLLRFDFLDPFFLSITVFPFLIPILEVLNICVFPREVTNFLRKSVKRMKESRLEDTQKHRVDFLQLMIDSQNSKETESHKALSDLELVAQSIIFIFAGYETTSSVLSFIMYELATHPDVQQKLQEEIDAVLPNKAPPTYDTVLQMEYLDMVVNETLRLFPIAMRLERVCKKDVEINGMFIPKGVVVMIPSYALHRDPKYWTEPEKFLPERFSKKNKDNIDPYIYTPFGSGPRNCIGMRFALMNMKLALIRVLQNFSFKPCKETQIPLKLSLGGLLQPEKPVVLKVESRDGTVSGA

Broadly, the AC50 is the midpoint of the concentration-response curve, whichever way the signal moves. On to `Cc1c(Nc2ncccc2C(=O)O)cccc1C(F)(F)F`, for which the AC50 on Cytochrome P450 1A2 was 12.6 µM (inconclusive).
As usually defined, the EC50 is the midpoint of the concentration-response curve. In the case of `CCO/C(C)=C1/SC(=S)NC1=O`, the EC50 in data set [1] is > 195 µM (not active).
As for `CN(CCC(=O)O)C1=Nc2ccc(Cl)cc2C(c2ccccc2)=[N+]([O-])C1`, the half-maximal activity concentration (AC50) on Cytochrome P450 1A2 is 0.0631 µM (inconclusive).
Regarding `CC(C)(C)[C@H]1C=C(C(=O)Nc2ccccc2)O[C@@H](OCCCCO)C1`, the EC50 in data set [1] is 5.49 µM (active).
As to `O=C(c1cnccn1)N1CCC[C@@]2(CCN(c3ccccn3)C2)C1`, at Cytochrome P450 1A2, the half-maximal activity concentration (AC50) is 20 µM (inconclusive).
For `CCCCNCCOCCSc1ccc(Cl)cc1`, the half-maximal activity concentration (AC50) on Cytochrome P450 2C19 (read-out: AC50) is 17.8 µM (inconclusive); at Cytochrome P450 3A4, 14.1 µM (inconclusive).
For `N#Cc1c(N)n(-c2ccc(C(=O)O)cc2)c2nc3ccccc3nc12`, the EC50 in data set [2] and in data set [3] was > 300 µM (not active) each time.
Take `CCOC(=O)C1=C(CN2c3ccccc3CC2C)NC(=O)NC1c1ccccc1` (stereo not drawn): the AC50 at Cytochrome P450 1A2 is 22.4 µM (inconclusive); at Cytochrome P450 2C9, 25.1 µM (inconclusive).
Turning to `COC(=O)c1cc(C(=O)OC)cc(-n2c(C)cc(C=O)c2C)c1`, the EC50 in data set [2] is 78.7 µM (active); in data set [3], > 300 µM (not active).
For the compound `NC[C@H](CP(=O)(O)O)c1ccc(Cl)cc1`, the half-maximal activity concentration (AC50) on Cytochrome P450 1A2 is 39.8 µM (inconclusive).
On the same count and under the same terms, as for `Cc1cnc(CNc2ncncc2-c2ccc(C(=O)N(C)C)cc2)cn1`, the figure is 20 µM (inconclusive).
As for `N#C/C(=C\N1CCNC1=S)C(=O)c1ccc2ccccc2c1`, the concentration at half-maximal activity (AC50) was 1.58 µM (inconclusive) on Cytochrome P450 1A2 and 3.16 µM (inconclusive) at Cytochrome P450 2C9.
For `O=C(NCCOc1ccccc1)C1Nc2ccc(OC(F)(F)F)cc2C2C=CCC12` (stereo not drawn), the half-maximal effective concentration (EC50) in data set [2] and in data set [3] was > 300 µM (not active) each time.
Regarding `CCN1CCc2c(OCc3ccccc3)cccc2C1=O`, the concentration for a half-maximal effect (EC50) in data set [1] was 37.3 µM (active).
For `CC(CP(=O)(O)O)NC(=O)Cc1ccccc1` (stereo not drawn), the AC50 result at Cytochrome P450 2C19 is “inconclusive”.
For the compound `CCC/C=C(\CCC)C(NC(=O)c1ccc(-c2ccccc2)cc1)c1ccc(C(=O)OC)cc1` (stereo not drawn), the half-maximal activity concentration (AC50) on Cytochrome P450 1A2 was 0.631 µM (inconclusive); on Cytochrome P450 3A4, 6.31 µM (inconclusive).
Take `COc1ccccc1-c1ccc2ncnc(N3CCN(C)CC3)c2c1`: the concentration at half-maximal activity (AC50) on Cytochrome P450 2C19 (read-out: AC50) is 15.8 µM (inconclusive); on Cytochrome P450 2D6, 39.8 µM (inconclusive).
With `CCC(=O)Nc1ccc(C(=O)NNC(=O)c2cccs2)cc1`, at Cytochrome P450 2C19 (read-out: AC50), the AC50 is 0.891 µM (inconclusive).
`CCC/C=C(\CCC)C(NC(=O)c1ccc(C(=O)OC)cc1)c1ccc(C(=O)OC)cc1` (stereo not drawn): the AC50 at Cytochrome P450 2C19 (read-out: AC50) is 10 µM (inconclusive); on Cytochrome P450 2D6, 25.1 µM (inconclusive).
For `COc1cc(C(=O)Nc2ccc(-c3nnc(-c4ccco4)o3)cc2)cc(OC)c1OC`, the half-maximal activity concentration (AC50) at Cytochrome P450 2C19 (read-out: AC50) was 6.31 µM (inconclusive); on Cytochrome P450 2C9, 7.94 µM (inconclusive).
As to `Cc1nc2sc3c(NCc4ccco4)ncnc3c2c2c1COC(C)(C)C2`, the EC50 in data set [1] is on record as > 195 µM (not active).
With `CCCc1c(O)nc(SCC(=O)N2CCCCC2)nc1O`, the 50% effective concentration (EC50) in data set [2] and in data set [3] was > 300 µM (not active) throughout.
For `CCCS(=O)(=O)N1CCCC(C(=O)NCC2CCCO2)C1` (stereo not drawn), the half-maximal activity concentration (AC50) was 39.8 µM (inconclusive) at Cytochrome P450 2C19 (read-out: AC50) and 8.91 µM (inconclusive) at Cytochrome P450 2C9.
On to `COc1cc(N2N=C(c3ccccc3)CC2c2ccccc2)c(C=O)cc1C=O` (stereo not drawn), for which the 50% effective concentration (EC50) in data set [1] is listed as > 195 µM (not active).
Regarding `COc1ccc(-c2ccc(/C=C3\C(=O)N(c4ccccc4)N=C3c3ccccc3)o2)c([N+](=O)[O-])c1`, the concentration at half-maximal activity (AC50) at Cytochrome P450 1A2 is 5.01 µM (inconclusive).
`CCOC(=O)c1cc(=O)n2nc(-c3ccc(C)cc3)nc2s1`: the EC50 in data set [2] and in data set [3] was > 300 µM (not active) in each case.
Turning to `CC(C)(C)NC(=O)c1c(F)c(F)c(F)c(F)c1F`, the EC50 in data set [1] is given as > 195 µM (not active).
Turning to `Cc1nn2c(N3CCOCC3)c3c(nc2c1-c1ccccc1)CCCC3`, the EC50 in data set [2] and in data set [3] was > 300 µM (not active) each time.
Turning to `CCOC(=O)c1c(NC(=O)CSc2nnc(-c3c[nH]c4ccccc34)n2C)sc2c1CCCC2`, the concentration giving a half-maximal response (EC50) in data set [1] is on record as > 195 µM (not active).
As to `O=C(NNC(=O)c1csc(-c2cccnc2)n1)c1ccccc1`, the EC50 is > 300 µM (not active) in data set [2] and > 300 µM (inconclusive) in data set [3].
Take `COc1cccc(N(C(=O)c2cccs2)c2nc3ccccc3s2)c1`: in data set [1], the EC50 is > 195 µM (not active).
For `CCOC(=O)c1ccc(-n2c(C)ccc2C)cc1`, the EC50 in data set [2] and in data set [3] was > 300 µM (not active) in each case.
Turning to `CCOC(=O)N1CCC(NC(=O)C(Cc2ccccc2)NC(=O)C2CCCCC2)CC1` (stereo not drawn), the EC50 in data set [2] and in data set [3] was > 300 µM (not active) each time.
With `COc1nc(-c2ccccc2)ccc1-c1noc(COc2ccccc2)n1`, in data set [1], the EC50 is recorded as > 195 µM (not active).
The same measure, in the same setting: under `CC1(C)CC(=O)C(=NNc2ccc(OC(F)F)cc2)C(=O)C1` stands > 195 µM (not active).
Still for that read-out and setting: as for `Cc1cc(C)c(NC(=O)Nc2ccc3c(c2)OCO3)c(C)c1`, the figure is > 195 µM (not active).
For the compound `S=C(NCc1ccncc1)Nc1ccc(Cl)cc1Cl`, the concentration giving a half-maximal response (EC50) in data set [2] and in data set [3] was > 300 µM (not active) throughout.
`N#Cc1cccc(NC(=O)N2CCCC3(CCN(C(=O)c4cc(C(F)(F)F)cc(C(F)(F)F)c4)CC3)C2)c1`: the AC50 at Cytochrome P450 1A2 was 6.31 µM (inconclusive).
As for `COc1ccc(C(=O)N2CCC3(CCN(Cc4ccc(C#N)cc4)CC3)CC2)cc1`, the concentration at half-maximal activity (AC50) on Cytochrome P450 1A2 is 12.6 µM (inconclusive); at Cytochrome P450 2C9, 31.6 µM (inconclusive).
With `COC(=O)c1ccc(-n2c(C)cc(C(=O)COC(=O)CNS(=O)(=O)c3ccc(C)cc3)c2C)cc1`, the 50% effective concentration (EC50) in data set [2] and in data set [3] was > 300 µM (not active) in each case.
Regarding `CCNc1ncc2nc(CCc3ccccc3)c(=O)n(-c3ccccc3)c2n1`, the concentration at half-maximal activity (AC50) on Cytochrome P450 2C19 (read-out: AC50) was 31.6 µM (inconclusive).
For the compound `Cc1cc(C)cc(OCC(O)CN2CC(C)OC(C)C2)c1` (stereo not drawn), the concentration giving a half-maximal response (EC50) in data set [1] is 32.9 µM (active).
With `CCN(CC)C(=O)CSc1nnc(C2CCCCC2)o1`, the half-maximal activity concentration (AC50) on Cytochrome P450 2C19 (read-out: AC50) is 11.2 µM (inconclusive).
`O=c1/c(=C\c2ccc(O)cc2)sc2nc(-c3ccccc3)c(-c3ccccc3)n12`: the EC50 was > 300 µM (not active) in data set [2] and > 300 µM (inconclusive) in data set [3].
For `O=C(O)/C=C\C(=O)NCc1ccccc1`, the half-maximal activity concentration (AC50) at Cytochrome P450 2C19 (read-out: AC50) is 0.0158 µM (inconclusive); on Cytochrome P450 2D6, 0.794 µM (inconclusive).
Regarding `COc1cc(OC)c(/C=C2/C(=O)Nc3ccccc32)c(OC)c1`, the AC50 at Cytochrome P450 2C19 (read-out: AC50) was 31.6 µM (inconclusive).

The values above are taken from ChEMBL document CHEMBL1201862, “PubChem BioAssay data set” (2004).
